Values quoted from earlier work as cited in EP4160208A1, “URINE SEDIMENT STAINING LIQUID” (TOYOBO CO., LTD., priority 2020, dated 2021).

Point of comparison: O=S(=O)(O)CCN1CCN(CCO)CC1 [HEPES], pKa 7.55. Against it:
- O=S(=O)(O)CCNC(CO)(CO)CO [TES] — within 0.2 log units, 7.50
- O=C(O)CNC(CO)(CO)CO [Tricine] — higher, 8.15
- NC(=O)CN(CC(=O)O)CC(=O)O [ADA] — lower, 6.80
- O=S(=O)(O)CCN(CCO)CCO [BES] — lower, 7.15
